Assay results as given in patent publication US6716625B1, “Histidine kinases of Aspergillus and other fungal species, related compositions, and methods of use” (priority 1997, dated 2004).
*1 amine or outer side, *2 acyl side, *3 side chain or, on linkers, in order; H or OH if unused. Where a SMILES comes first, the peptide text is derived from it. Bridges are numbered along the chain shown (N, C = ends). [ ]: non-standard residue; d: D form. The star is where a group is joined. Orn(4R-OH,5R-OH) = O=C([C@H](C[C@@H](O)[C@@H](O)N[*:3])N[*:1])[*:2]; hTyr(3S-OH,4S-OH) = N[C@H](C(=O)O)[C@H](O)[C@@H](O)c1ccc(O)cc1; Pro(3S-OH,4S-Me) = C[C@H]1CN[C@H](C(=O)O)[C@H]1O; Benzoyl(4-octyloxy) = CCCCCCCCOc1ccc(C(=O)*)cc1; Hyp = O=C(O)[C@@H]1C[C@@H](O)CN1

Tests used:
[1] = test system: A. fumigatus wild-type and ΔFOS-1 strains; assay: Sensitivity to antifungals, variation of NCCLS M27T-protocol (microtiter broth); assay type: cell-based, Aspergillus fumigatus; settings: 1×RPMI medium, 48 hours, 37° C., 96-well plates
Experimental: Sensitivity to antifungals: To assess the differential sensitivities of the wild-type and ΔFOS-1 strains to a number of antifungal compounds, the minimum inhibitor concentration of amphotericin B, nikkomycin Z, benomyl, miconazole, ketoconazole, fluconazole, cilofungin, 5-fluorocytosine and calcofluor white M2R new against the wild-type and ΔFOS-1 strains was determined. This fungal sensitivity was determined using a variation of the National Committee for Clinical Laboratory Standards (NCCLS) M27T-protocol (Galgiani et al., NCCLS, 15:1-29 [1995]). Briefly, serial dilutions of the anti-fungal drugs were made in 100 μl 1×RPMI medium (Life Technologies) and an additional 100 μl 1×RPMI medium containing 2×10^4 conidia/ml of each strain was added to each well of 96-well microtiter plates. Plates were incubated for 48 hours with gentle shaking at 37° C. The amount of growth in each well was estimated using a inverted phase microscope.

[2] = test system: C. albicans wild-type, ΔCOS-1/ΔCOS-1, hemizygous and reconstituted strains; assay: Sensitivity of C. albicans COS-1 strains to antifungal drugs in liquid RPMI medium (NCCLS M27-T); assay type: cell-based, Candida albicans
Experimental: For determination of viability and growth, each strain tested was grown from −80° C. stocks overnight at 37° C. in 50 ml of Sabouraud dextrose broth (30 g/L) (Difco, Catalog Number 0382-17-9) in 250 ml flasks with shaking at 180 rpm. Three hundred milliliter Nephelo flasks (Bellco) containing 60 ml medium were inoculated with 1×10^6 cells/ml (final concentration) from the starter culture and incubated at 37° C. with orbital shaking at 180 rpm. The optical density of each culture was determined periodically using a Klett-Summerson Photoelectric Colorimeter (Klett). For cell viability determination, overnight cultures were diluted and known numbers (as determined by hemacytometer counts) were plated onto agar-solidified SD medium and the numbers of resulting colonies determined. The sensitivity of each strain to a number of antifungal drugs in liquid medium was performed essentially as described in the National Committee for Clinical Laboratory Standards (NCCLS) 27T-protocol (Galgiani et al., NCCLS, 15:1-29 [1995]).

[3] = test system: A. fumigatus wild-type and ΔFOS-1 strains; assay: Effect of oxidative stress compounds on hyphal growth; assay type: cell-based, Aspergillus fumigatus; settings: agar-solidified MPG medium; diamide 0-2 mM or menadione 0-0.06 mM; 37° C., 3 days
Experimental: Effect of oxidative stress compounds: To determine the effect of various oxidative stress-inducing compounds on hyphal growth in the wild-type and ΔFOS-1 strains, 2 μl water containing 1×10^3 conidia were placed as single spots onto 150 mm×15 mm petri plates containing 30 ml agar-solidified MPG medium. In addition, these agar plates contained either diamide (0-2 mM; Sigma) (an SH residue oxidant that attacks surface proteins; de Souza Pereira and Geibel, J. Mol. Cell Biochem., 201:17-24 [1999]), or menadione (0-0.06 mM; Sigma Aldrich) (a superoxide generator; Caricchio et al., Clin. Immunol., 93:65-74 [1999]). These plates were incubated at 37° C. for 3 days. Hyphal growth/extension rates were determined by recording the distance traveled by hyphal fronts after various times of incubation.

[4] = test system: A. fumigatus wild-type strain; assay: Dicarboximide drug sensitivity: hyphal extension on agar-solidified MPG medium, wild-type strain; assay type: cell-based, Aspergillus fumigatus; settings: mean ± standard deviation of at least 12 data points
Experimental: (§1) Although an understanding of the mechanism is not necessary in order to use the present invention, resistance to dicarboximide antifungals by a number of fungi appears to involve a histidine kinase mutation. […] To test if the ΔFOS-1 strain was also resistant to vinclozolin, iprodione and procymidone, the growth of wild-type and ΔFOS-1 strains on medium containing each drug was examined. Briefly, wild-type and ΔFOS-1 conidia (1×10^3 in 2 μl) were inoculated onto agar-solidified MPG medium containing 10 μg/ml vinclozolin or iprodione, or 12 μg/ml procymidone. Hyphal extension rates in mm/hr were recorded, and a mean determined based on at least 12 individual data points. Results are shown±standard deviation. P values were calculated using the Students t test (http://nimitz.mcs.kent.edu/˜blewis/stat/tTest.html).

[5] = test system: A. fumigatus ΔFOS-1 strain; assay: Dicarboximide drug sensitivity: hyphal extension on agar-solidified MPG medium, ΔFOS-1 strain; assay type: cell-based, Aspergillus fumigatus; settings: mean ± standard deviation of at least 12 data points
Experimental: as §1

[6] = test system: OS-1 mutant strains of N. crassa; settings: Beever 1983; cited from earlier work
[7] = 10 μg/ml drug in agar-solidified MPG medium
[8] = 12 μg/ml drug in agar-solidified MPG medium

| SMILES | Difference in minimum inhibitor concentration between wild-type and ΔFOS-1 strains [1] | Relative sensitivity of wild-type, ΔCOS-1/ΔCOS-1, hemizygous and reconstituted strains [2] | further results |
| --- | --- | --- | --- |
| Clc1ccc(COC(Cn2ccnc2)c2ccc(Cl)cc2Cl)c(Cl)c1 (stereo not drawn) [miconazole] | No differences in minimum inhibitor concentration | equally sensitive |  |
| C[C@@H]([C@H](N)C(=O)N[C@H](C(=O)O)[C@H]1O[C@@H](n2ccc(=O)[nH]c2=O)[C@H](O)[C@@H]1O)[C@H](O)c1ccc(O)cn1 [nikkomycin Z] | No differences in minimum inhibitor concentration | equally sensitive |  |
| CC1=CC(=O)c2ccccc2C1=O [menadione] |  |  | Difference in hyphal growth/extension rates between wild-type and ΔFOS-1 strains [3]: No differences in hyphal growth/extension rates |
| Nc1nc(=O)[nH]cc1F [5-fluorocytosine] | No differences in minimum inhibitor concentration | equally sensitive |  |
| CCCCCCCCOc1ccc(C(=O)N[C@H]2C[C@@H](O)[C@@H](O)NC(=O)[C@@H]3[C@@H](O)[C@@H](C)CN3C(=O)[C@H]([C@@H](C)O)NC(=O)[C@H]([C@H](O)[C@@H](O)c3ccc(O)cc3)NC(=O)[C@@H]3C[C@@H](O)CN3C(=O)[C@H]([C@@H](C)O)NC2=O)cc1 [cilofungin] ({Benzoyl(4-octyloxy)}-[Orn(4R-OH,5R-OH)]T[Hyp][hTyr(3S-OH,4S-OH)]T[Pro(3S-OH,4S-Me)]; lactam 1-C) | No differences in minimum inhibitor concentration | equally sensitive |  |
| C[C@@H]1[C@H](O)[C@@H](C)/C=C/C=C/C=C/C=C/C=C/C=C/C=C/[C@H](O[C@@H]2O[C@H](C)[C@@H](O)[C@H](N)[C@@H]2O)C[C@@H]2O[C@](O)(C[C@@H](O)C[C@@H](O)[C@H](O)CC[C@@H](O)C[C@@H](O)CC(=O)O[C@H]1C)C[C@H](O)[C@H]2C(=O)O [amphotericin B] | No differences in minimum inhibitor concentration | equally sensitive |  |
| CC(C)NC(=O)N1CC(=O)N(c2cc(Cl)cc(Cl)c2)C1=O [iprodione] |  |  | Hyphal extension rate, wild-type [4, 7]: 0.29 ± 0.11 mm/hr; Hyphal extension rate, ΔFOS-1 [5, 7]: 0.52 ± 0.03 mm/hr |
| C=CC1(C)OC(=O)N(c2cc(Cl)cc(Cl)c2)C1=O (stereo not drawn) [vinclozolin] |  | equally sensitive | Hyphal extension rate, wild-type [4, 7]: 0.34 ± 0.11 mm/hr; Hyphal extension rate, ΔFOS-1 [5, 7]: 0.50 ± 0.05 mm/hr; Resistance of OS-1 mutant strains [6]: highly resistant |
| CCCCNC(=O)n1c(NC(=O)OC)nc2ccccc21 [benomyl] | No differences in minimum inhibitor concentration | equally sensitive |  |
| OC(Cn1cncn1)(Cn1cncn1)c1ccc(F)cc1F [fluconazole] | No differences in minimum inhibitor concentration | equally sensitive |  |
| CC12CC1(C)C(=O)N(c1cc(Cl)cc(Cl)c1)C2=O (stereo not drawn) [procymidone] |  |  | Hyphal extension rate, wild-type [4, 8]: 0.21 ± 0.13 mm/hr; Hyphal extension rate, ΔFOS-1 [5, 8]: 0.48 ± 0.08 mm/hr |
| O=S(=O)([O-])c1cc(Nc2nc(Nc3ccccc3)nc(N(CCO)CCO)n2)ccc1/C=C/c1ccc(Nc2nc(Nc3ccccc3)nc(N(CCO)CCO)n2)cc1S(=O)(=O)[O-].[Na+].[Na+] [calcofluor white M2R new] | No differences in minimum inhibitor concentration |  |  |
| CN(C)C(=O)/N=N/C(=O)N(C)C [diamide] |  |  | Difference in hyphal growth/extension rates between wild-type and ΔFOS-1 strains [3]: No differences in hyphal growth/extension rates |
| CC(=O)N1CCN(c2ccc(OCC3COC(Cn4ccnc4)(c4ccc(Cl)cc4Cl)O3)cc2)CC1 (stereo not drawn) [ketoconazole] | No differences in minimum inhibitor concentration | equally sensitive |  |
